Test results as given in US20220362174A1, “Use of R-enantiomer Beta2-agonists for prevent and treatment of pulmonary inflammation and inflammatory remodeling for reduced adverse effects” (priority 2019, published 2022).

Assays:
Format in all cases: cell-based
[1] = test system: LPS-induced RAW264.7 cells; experiment: Seahorse analysis of OCR and ECAR
Procedure: (§1) Macrophages were treated without or with (R)/(S)-salbutamol for 1 h prior to LPS stimulation and subsequently incubated for 12 h. […] The fluorescence of the oxidized product (2′,7′-dichlorofluorescein, DCF) was assessed using an LSM710 Laser Scanning Confocal Microscope (Carl Zeiss, Jena, Germany). The concentration of NO in the culture supernatant was measured by assaying the concentrations of nitrite (a stable NO breakdown product) using the Griess assay (Beyotime, Shanghai, China), according to the manufacturer's instructions. The intracellular NO level was detected using the NO-sensitive fluorescence probe DAF-FM DA (Sigma, St. Louis, Mo., USA) (24). Cells were labeled with DAF-FM DA (10 μM) at 37° C. for 30 min and were gently washed three times with PBS. Fluorescence was detected using a LSM710 Laser Scanning Confocal Microscope (Scale bars, 100 μm) (Carl Zeiss, Jena, Germany).
Macrophage activation elicited different metabolic profiles. LPS-induced macrophages adopted glycolytic metabolic profiles. This invention disclosed a β2 adrenergic receptor mediated Warburg metabolism (aerobic glycolysis) of in LPS treated macrophages. The OCR and ECAR were measured using an extracellular flux analyzer. […] ECAR is a measurement extracellular acidification rate, an indication of cellular glycolytic rate.

[2] = test system: LPS-induced RAW264.7 cells; experiment: mRNA expression of TNF-α, IL-1β and MCP-1 by quantitative real-time PCR; conditions: ICI-118551-treated cells compared to the control group
Procedure: as §1
To examine the mRNA expression of TNF-α, IL-1β and MCP-1, quantitative real-time PCR was performed. Consistent with the cytokine expression study, the mRNA expression of TNF-α was increased by 2.26-fold in the LPS-induced group compared to the control group (FIG. 8D). The mRNA expression of IL-1β and MCP-1 increased by 12.74-fold (FIG. 8E) and 3.1-fold, respectively, in the LPS-induced group compared to the control group (FIG. 8F).

iNOS = iNOS mRNA and protein levels
Procedure: (§2) In addition, the concentration of NO in the culture supernatant was measured by assaying the concentrations of nitrite (a stable NO breakdown product) using the Griess assay. […] To investigate (R)-salbutamol role on the level of iNOS, the mRNA and protein levels of iNOS were determined.

[3] = test system: LPS-induced macrophages RAW264.7 cells; experiment: Ratio of GSH/GSSG
Text: The ratio of GSH to GSSG is a marker of oxidative stress.

[4] = test system: LPS-induced RAW264.7 cells; experiment: NO production (DAF-FM DA probe, Griess assay); conditions: treatment with ICI-118551 in (R)-salbutamol/LPS cells
Procedure: as §1, §2

[5] = test system: LPS-induced RAW264.7 cells; experiment: M1/M2 macrophage polarization by flow cytometry; conditions: pretreated with (R)-salbutamol following incubation with ICI-118551, LPS
Procedure: as §1
Macrophages M1 (F4/80+/CD11c+/CD206−) and M2 (F4/80+/CD11c−/CD206+) polarization were analyzed using flow cytometry.

## Cc1ccc(OCC(O)C(C)NC(C)C)c2c1CCC2 (centres unmarked) [ICI-118551, reference compound]
[1]
  metabolism shift by (R)-salbutamol with ICI-118551 treatment: blocked
[2]
  mRNA expression of IL-1β, increase: 12.41 fold
  mRNA expression of MCP-1, increase: 3.36 fold
  mRNA expression of TNF-α, increase: 2.28 fold
iNOS
  effects of (R)-salbutamol on iNOS when adding ICI-118551: blocked
[3]
  effect of (R)-salbutamol on GSH/GSSG with ICI-118551: blocked
[4]
  NO levels: increased NO levels
[5]
  percentage of M1 macrophages: 55.8%
